Experimental data taken from ChEMBL document CHEMBL4257571, “Discovery of 5-(2-chloro-4'-(1H-imidazol-1-yl)-[1,1'-biphenyl]-4-yl)-1H-tetrazole as potent and orally efficacious S-nitrosoglutathione reductase (GSNOR) inhibitors for the potential treatment of COPD” (Bioorg Med Chem Lett, 2018).
Converted amounts (≈) assume the structure as drawn.

Assays:
[1] = Half life in C57/BL6 mouse at 30 mg/kg, po; format: ADME, organism-based; details: in vivo
[2] = Tmax in C57/BL6 mouse at 30 mg/kg, po; format: ADME, organism-based; details: in vivo
[3] = Efflux ratio of apparent permeability across basolateral to apical side over apical to basolateral side in human Calu3 cells; format: ADME, cell-based, Calu-3
hERG (KCNH2) = hERG (KCNH2) (Homo sapiens, UniProt Q12809); experiment: Inhibition of human ERG at 10 uM by patch clamp assay relative to control
[4] = molecular target: Alcohol dehydrogenase class-3 (Mus musculus, UniProt P28474); experiment: Inhibition of mouse GSNOR assessed as reduction in NADH consumption after 3 mins by spectrophotometric analysis
Rattus norvegicus = species on record: Rattus norvegicus; experiment: Displacement of [35S]dATPalphaS to rat P2Y receptor at 10 uM after 60 mins by scintillation counting analysis relative to control
CYP2C19 = CYP2C19 (Homo sapiens, UniProt P33261); experiment: Inhibition of CYP2C19 in human liver microsomes at 10 uM after 40 mins in presence of NADPH by LC/MS/MS analysis relative to control; format: ADME
[5] = Aqueous solubility of compound in fed state simulated intestinal fluid at pH 5.2; format: physicochemical
[6] = Aqueous solubility of compound in acetate buffer at pH 4.5; format: physicochemical
Mus musculus [7] = experiment: (§1) Anti-inflammatory activity in po dosed C57BL/6 mouse model of cigarette smoke induced chronic obstructive pulmonary disease assessed as reduction in cellular infiltration in bronchoalveolar lavage administered once daily for 7 days 1 hr prior to first smoke exposure and measured on day 8 after last smoke exposure post single drug treatment by hemocytometry; format: functional, organism-based
[8] = molecular target: All-trans-retinol dehydrogenase [NAD(+)] ADH1B (Homo sapiens, UniProt P00325); experiment: Inhibition of ADH1B (unknown origin) assessed as reduction in NADH production by spectrophotometric analysis
[9] = molecular target: T1, Carbonyl reductase [NADPH] 1 (Homo sapiens) (UniProt P16152); experiment: Inhibition of CBR1 (unknown origin) assessed as reduction in NADP+ production at 10 uM by spectrophotometric analysis relative to control
T1 sequence (whole entry): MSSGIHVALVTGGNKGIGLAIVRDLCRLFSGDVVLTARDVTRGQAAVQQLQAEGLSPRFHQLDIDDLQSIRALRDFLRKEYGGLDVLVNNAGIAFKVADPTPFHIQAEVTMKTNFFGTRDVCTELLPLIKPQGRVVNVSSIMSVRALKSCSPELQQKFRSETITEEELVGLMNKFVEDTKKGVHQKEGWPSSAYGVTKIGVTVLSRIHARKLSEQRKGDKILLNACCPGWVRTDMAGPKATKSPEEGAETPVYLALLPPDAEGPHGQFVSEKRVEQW

Mus musculus [10] = experiment: as §1, with “in” for “in po dosed”, “macrophages count” for “reduction in cellular infiltration”, “lavage at 3 mg/kg, po” for “lavage”, “Leishman's staining based assay” for “hemocytometry”; format: functional
Mus musculus [11] = experiment: as §1, with “in” for “in po dosed”, “neutrophil count” for “reduction in cellular infiltration”, “lavage at 3 mg/kg, po” for “lavage”, “Leishman's staining based assay” for “hemocytometry”; format: functional
[12] = AUC (0 to 24 hrs) in C57/BL6 mouse at 30 mg/kg, po; format: ADME, organism-based; design: time < 24 hr, dose 30 mg/kg, route oral; details: in vivo
Mus musculus [13] = experiment: as §1, with “in” for “in po dosed”, “total leukocyte count” for “reduction in cellular infiltration”, “lavage at 100 mg/kg, po” for “lavage”; format: functional
[14] = Ratio of drug uptake in lung to plasma of C57/BL6 mouse at 3 mg/kg, iv or 30 mg/kg, po; format: ADME, organism-based
[15] = Oral bioavailability in C57/BL6 mouse at 30 mg/kg; format: ADME, organism-based; details: in vivo
Homo sapiens [16] = species on record: Homo sapiens; experiment: Inhibition of chloride channel (unknown origin) at 10 uM relative to control
Homo sapiens [17] = species on record: Homo sapiens; experiment: Inhibition of I2 receptor (unknown origin) at 10 uM relative to control
[18] = Aqueous solubility of compound in phosphate buffer at pH 6.8; format: physicochemical
[19] = Half life in C57/BL6 mouse at 3 mg/kg, iv; format: ADME, organism-based; details: in vivo
CYP2D6 = CYP2D6 (Homo sapiens, UniProt P10635); experiment: Inhibition of CYP2D6 in human liver microsomes at 10 uM after 20 mins in presence of NADPH by LC/MS/MS analysis relative to control; format: ADME; details: liver microsomes
[20] = molecular target: Alcohol dehydrogenase class-3 (Rattus norvegicus, UniProt P12711); experiment: Inhibition of rat GSNOR assessed as reduction in NADH consumption after 3 mins by spectrophotometric analysis
[21] = Effective permeability of the compound by PAMPA assay; format: ADME; details: read-out: Peff
[22] = Apparent permeability in human Calu3 cells; format: ADME, cell-based, Calu-3
Mus musculus [23] = experiment: as §1, with “in” for “in po dosed”, “total leukocyte count” for “reduction in cellular infiltration”, “lavage at 30 mg/kg, po” for “lavage”; format: functional
[24] = Aqueous solubility of compound in DMSO; format: physicochemical
Mus musculus [25] = experiment: as §1, with “in” for “in po dosed”, “macrophages count” for “reduction in cellular infiltration”, “lavage at 30 mg/kg, po” for “lavage”, “Leishman's staining based assay” for “hemocytometry”; format: functional
CYP3A4 = CYP3A4 (Homo sapiens, UniProt P08684); experiment: Inhibition of CYP3A4 in human liver microsomes at 10 uM after 20 mins in presence of NADPH by LC/MS/MS analysis relative to control; format: ADME; details: liver microsomes
Mus musculus [26] = experiment: as §1, with “in” for “in po dosed”, “macrophages count” for “reduction in cellular infiltration”, “lavage at 10 mg/kg, po” for “lavage”, “Leishman's staining based assay” for “hemocytometry”; format: functional
[27] = molecular target: Leukotriene B4 receptor 1 (Homo sapiens) (UniProt Q15722); experiment: Displacement of [3H]LTB4 to recombinant human LTB4 receptor at 10 uM after 60 mins by scintillation counting analysis relative to control
[28] = Cmax in C57/BL6 mouse at 30 mg/kg, po; format: ADME, organism-based; design: dose 30 mg/kg, route oral; details: in vivo
Bos taurus = species on record: Bos taurus; experiment: Inhibition of bovine PDE6 at 10 uM using [3H]cGMP as substrate after 60 mins by scintillation counting analysis relative to control
Mus musculus [29] = experiment: as §1, with “in” for “in po dosed”, “neutrophil count” for “reduction in cellular infiltration”, “lavage at 100 mg/kg, po” for “lavage”, “Leishman's staining based assay” for “hemocytometry”; format: functional
Mus musculus [30] = experiment: as §1, with “in” for “in po dosed”, “neutrophil count” for “reduction in cellular infiltration”, “lavage at 10 mg/kg, po” for “lavage”, “Leishman's staining based assay” for “hemocytometry”; format: functional

CYP2C19, sequence (P33261 whole entry): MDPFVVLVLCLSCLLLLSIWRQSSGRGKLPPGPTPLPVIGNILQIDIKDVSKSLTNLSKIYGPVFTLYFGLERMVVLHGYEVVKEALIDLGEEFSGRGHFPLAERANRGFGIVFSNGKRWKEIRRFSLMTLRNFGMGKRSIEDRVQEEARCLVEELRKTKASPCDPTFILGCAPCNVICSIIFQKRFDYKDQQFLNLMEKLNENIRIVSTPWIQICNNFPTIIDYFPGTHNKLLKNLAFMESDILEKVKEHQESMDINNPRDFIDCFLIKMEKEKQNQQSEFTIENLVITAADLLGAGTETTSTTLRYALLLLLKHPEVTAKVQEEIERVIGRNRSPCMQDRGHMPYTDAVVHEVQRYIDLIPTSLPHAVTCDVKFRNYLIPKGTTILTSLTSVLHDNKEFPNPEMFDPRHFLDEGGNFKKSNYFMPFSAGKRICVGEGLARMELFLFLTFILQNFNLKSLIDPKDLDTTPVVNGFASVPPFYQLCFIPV
CYP3A4, sequence (P08684 whole entry): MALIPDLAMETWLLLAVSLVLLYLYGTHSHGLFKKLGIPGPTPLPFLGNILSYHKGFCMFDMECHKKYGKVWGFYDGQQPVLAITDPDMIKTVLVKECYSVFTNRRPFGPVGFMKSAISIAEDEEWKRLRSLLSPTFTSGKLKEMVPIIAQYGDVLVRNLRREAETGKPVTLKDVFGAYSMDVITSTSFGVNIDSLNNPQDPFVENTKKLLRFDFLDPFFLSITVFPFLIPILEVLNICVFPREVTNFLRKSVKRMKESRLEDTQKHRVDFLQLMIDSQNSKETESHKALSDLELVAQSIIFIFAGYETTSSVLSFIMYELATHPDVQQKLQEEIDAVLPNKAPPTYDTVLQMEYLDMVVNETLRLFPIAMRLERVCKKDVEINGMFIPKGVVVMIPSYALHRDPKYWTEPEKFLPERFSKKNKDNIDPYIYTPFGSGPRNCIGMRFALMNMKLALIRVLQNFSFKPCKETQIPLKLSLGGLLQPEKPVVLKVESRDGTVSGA
Alcohol dehydrogenase class-3 (Rattus norvegicus, UniProt P12711), sequence (P12711 whole entry): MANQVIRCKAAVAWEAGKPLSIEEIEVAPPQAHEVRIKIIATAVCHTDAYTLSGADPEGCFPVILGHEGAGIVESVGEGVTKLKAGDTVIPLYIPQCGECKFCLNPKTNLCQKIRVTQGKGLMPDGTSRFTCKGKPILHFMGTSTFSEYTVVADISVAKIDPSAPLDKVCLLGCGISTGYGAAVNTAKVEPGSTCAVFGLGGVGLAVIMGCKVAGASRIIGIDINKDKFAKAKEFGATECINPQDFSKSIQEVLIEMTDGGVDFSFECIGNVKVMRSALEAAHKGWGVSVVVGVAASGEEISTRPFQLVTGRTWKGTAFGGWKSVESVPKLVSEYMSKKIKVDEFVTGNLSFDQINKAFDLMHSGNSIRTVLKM
All-trans-retinol dehydrogenase [NAD(+)] ADH1B, sequence (P00325 whole entry): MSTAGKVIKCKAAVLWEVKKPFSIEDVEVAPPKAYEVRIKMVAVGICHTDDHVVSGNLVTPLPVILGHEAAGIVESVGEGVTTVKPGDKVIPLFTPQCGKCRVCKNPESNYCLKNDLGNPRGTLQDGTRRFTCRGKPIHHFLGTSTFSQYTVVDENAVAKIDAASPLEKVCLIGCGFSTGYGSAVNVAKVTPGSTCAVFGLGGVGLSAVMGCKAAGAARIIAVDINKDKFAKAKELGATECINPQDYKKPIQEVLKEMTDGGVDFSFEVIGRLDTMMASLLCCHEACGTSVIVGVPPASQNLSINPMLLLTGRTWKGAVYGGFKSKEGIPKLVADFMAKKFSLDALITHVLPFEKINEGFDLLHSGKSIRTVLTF
CYP2D6, sequence (P10635 whole entry): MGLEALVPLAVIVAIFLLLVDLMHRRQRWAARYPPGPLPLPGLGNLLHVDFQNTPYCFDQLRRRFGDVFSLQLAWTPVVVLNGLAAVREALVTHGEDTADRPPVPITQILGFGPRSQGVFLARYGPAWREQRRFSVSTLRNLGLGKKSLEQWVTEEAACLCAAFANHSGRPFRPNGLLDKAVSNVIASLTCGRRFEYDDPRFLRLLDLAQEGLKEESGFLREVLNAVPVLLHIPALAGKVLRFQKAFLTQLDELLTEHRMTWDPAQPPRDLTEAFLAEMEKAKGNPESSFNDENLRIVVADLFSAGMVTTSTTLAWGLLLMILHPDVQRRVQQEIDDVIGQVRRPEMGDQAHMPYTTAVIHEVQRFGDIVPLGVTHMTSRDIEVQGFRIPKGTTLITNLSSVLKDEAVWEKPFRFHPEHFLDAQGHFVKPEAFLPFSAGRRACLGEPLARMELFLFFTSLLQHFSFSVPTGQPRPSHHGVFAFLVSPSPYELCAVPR
Alcohol dehydrogenase class-3 (Mus musculus, UniProt P28474), sequence (P28474 whole entry): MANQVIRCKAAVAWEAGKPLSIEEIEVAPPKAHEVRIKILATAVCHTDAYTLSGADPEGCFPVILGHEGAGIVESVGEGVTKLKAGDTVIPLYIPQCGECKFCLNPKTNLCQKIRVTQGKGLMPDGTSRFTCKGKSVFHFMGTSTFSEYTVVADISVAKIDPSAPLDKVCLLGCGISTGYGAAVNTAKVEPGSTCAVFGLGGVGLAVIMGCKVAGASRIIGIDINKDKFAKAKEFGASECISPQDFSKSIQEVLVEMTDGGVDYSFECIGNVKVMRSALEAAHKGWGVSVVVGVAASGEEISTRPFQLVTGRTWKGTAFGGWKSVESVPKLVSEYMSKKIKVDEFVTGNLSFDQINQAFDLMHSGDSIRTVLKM
hERG (KCNH2), sequence (Q12809 whole entry): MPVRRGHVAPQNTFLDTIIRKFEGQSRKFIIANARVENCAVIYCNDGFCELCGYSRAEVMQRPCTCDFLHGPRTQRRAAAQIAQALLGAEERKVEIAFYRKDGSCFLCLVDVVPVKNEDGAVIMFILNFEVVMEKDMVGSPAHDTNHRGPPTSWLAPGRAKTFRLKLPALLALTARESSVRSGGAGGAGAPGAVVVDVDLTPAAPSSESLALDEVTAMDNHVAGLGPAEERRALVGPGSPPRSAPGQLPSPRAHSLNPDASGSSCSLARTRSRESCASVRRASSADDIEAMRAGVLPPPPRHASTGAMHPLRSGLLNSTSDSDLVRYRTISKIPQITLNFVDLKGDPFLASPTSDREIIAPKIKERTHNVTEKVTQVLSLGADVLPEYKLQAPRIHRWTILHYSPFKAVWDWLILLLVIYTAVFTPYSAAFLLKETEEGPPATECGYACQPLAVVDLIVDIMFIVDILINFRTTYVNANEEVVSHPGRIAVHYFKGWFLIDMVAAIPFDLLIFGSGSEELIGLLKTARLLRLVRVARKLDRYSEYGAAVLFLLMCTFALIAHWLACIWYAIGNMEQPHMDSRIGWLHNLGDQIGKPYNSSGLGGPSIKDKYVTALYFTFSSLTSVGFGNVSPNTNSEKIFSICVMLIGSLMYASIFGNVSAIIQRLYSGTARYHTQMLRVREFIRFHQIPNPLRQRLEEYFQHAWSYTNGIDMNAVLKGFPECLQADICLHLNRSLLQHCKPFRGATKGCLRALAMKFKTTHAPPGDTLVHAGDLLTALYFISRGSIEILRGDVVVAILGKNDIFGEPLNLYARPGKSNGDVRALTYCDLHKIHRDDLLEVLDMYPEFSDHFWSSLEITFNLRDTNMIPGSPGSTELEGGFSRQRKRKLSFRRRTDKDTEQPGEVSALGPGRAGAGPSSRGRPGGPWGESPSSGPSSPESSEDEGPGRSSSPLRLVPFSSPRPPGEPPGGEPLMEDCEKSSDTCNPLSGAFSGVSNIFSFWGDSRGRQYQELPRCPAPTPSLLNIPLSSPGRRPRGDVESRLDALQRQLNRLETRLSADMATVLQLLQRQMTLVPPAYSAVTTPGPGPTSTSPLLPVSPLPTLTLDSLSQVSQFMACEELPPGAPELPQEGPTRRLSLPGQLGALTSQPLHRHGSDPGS
Leukotriene B4 receptor 1 (Homo sapiens), sequence (Q15722 whole entry): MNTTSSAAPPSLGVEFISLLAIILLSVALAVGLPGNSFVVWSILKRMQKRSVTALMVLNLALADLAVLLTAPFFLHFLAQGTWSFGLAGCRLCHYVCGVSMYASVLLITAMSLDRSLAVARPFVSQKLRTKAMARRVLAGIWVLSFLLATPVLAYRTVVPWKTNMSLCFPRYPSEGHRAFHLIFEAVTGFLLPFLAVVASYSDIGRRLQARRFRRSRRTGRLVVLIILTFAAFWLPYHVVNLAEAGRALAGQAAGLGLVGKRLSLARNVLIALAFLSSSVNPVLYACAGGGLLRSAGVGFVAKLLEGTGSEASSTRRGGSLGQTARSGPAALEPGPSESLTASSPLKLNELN

- half-life [1]: 6 h
- Tmax [2]: 2 h
- efflux ratio [3]: 0.8
- IC50 [4]: 7.1 nM
- inhibition (Rattus norvegicus): 59%
- inhibition at 40 min, 10 µM (CYP2C19): 86%
- solubility [5]: 0.6 µg/mL (≈ 1.86 µM)
- solubility [6]: 1.1 µg/mL (≈ 3.41 µM)
- IC50 [8]: 54000 nM
- inhibition [9]: 24%
- AUC(0-t) at 24 h [12]: 69900 ng·h/mL
- Kp [14]: 0.38
- bioavailability [15]: 21%
- inhibition (Homo sapiens [16]): 50%
- inhibition (Homo sapiens [17]): 88%
- solubility [18]: 7 µg/mL (≈ 21.7 µM)
- half-life [19]: 3.4 h
- inhibition at 20 min, 10 µM (CYP2D6): 52%
- IC50 [20]: 9.1 nM
- Papp [21]: 0.12 ×10⁻⁶ cm/s
- Papp [22]: 8.23 ×10⁻⁶ cm/s
- solubility [24]: 20000 µg/mL (≈ 62000 µM)
- inhibition at 20 min, 10 µM (CYP3A4): 55%
- inhibition [27]: 64%
- Cmax [28]: 8960 ng/mL
- inhibition (Bos taurus): 60%
Structure (SMILES): Clc1cc(-c2nnn[nH]2)ccc1-c1ccc(-n2ccnc2)cc1
- inhibition at 10 µM (hERG (KCNH2)): 11%
- Activity (Mus musculus [7]): Dose-dependent effect
- Activity (Mus musculus [10]): 45%
- Activity (Mus musculus [11]): 19%
- Activity (Mus musculus [13]): 53%
- Activity (Mus musculus [23]): 49%
- Activity (Mus musculus [25]): 61%
- Activity (Mus musculus [26]): 59%
- Activity (Mus musculus [29]): 47%
- Activity (Mus musculus [30]): 25%
